Source: patent US10745416B2, “Macrocyclic compounds for treating disease” (Turning Point Therapeutics, Inc., priority 2017, dated 2020)
pIC50: −log10 of the molar value.

What was measured:
Test in all cases: Cell proliferation assay (CellTiter-Glo, 72 hours)
BaF3 EML4-ALK = molecular target: T1, BaF3 EML4-ALK (Homo sapiens, UniProt Q9UM73); type: cell-based; settings: anti-cell proliferation
T1 construct: The EML4-ALK gene (variant 1) was synthesized at GenScript and cloned into pCDH-CMV-MCS-EF1-Puro plasmid (System Biosciences, Inc); fused on or other part: Q9HC35 (Echinoderm microtubule-associated protein-like 4)
T1 sequence (Q9UM73 whole entry, change not shown, the tested form may be a part): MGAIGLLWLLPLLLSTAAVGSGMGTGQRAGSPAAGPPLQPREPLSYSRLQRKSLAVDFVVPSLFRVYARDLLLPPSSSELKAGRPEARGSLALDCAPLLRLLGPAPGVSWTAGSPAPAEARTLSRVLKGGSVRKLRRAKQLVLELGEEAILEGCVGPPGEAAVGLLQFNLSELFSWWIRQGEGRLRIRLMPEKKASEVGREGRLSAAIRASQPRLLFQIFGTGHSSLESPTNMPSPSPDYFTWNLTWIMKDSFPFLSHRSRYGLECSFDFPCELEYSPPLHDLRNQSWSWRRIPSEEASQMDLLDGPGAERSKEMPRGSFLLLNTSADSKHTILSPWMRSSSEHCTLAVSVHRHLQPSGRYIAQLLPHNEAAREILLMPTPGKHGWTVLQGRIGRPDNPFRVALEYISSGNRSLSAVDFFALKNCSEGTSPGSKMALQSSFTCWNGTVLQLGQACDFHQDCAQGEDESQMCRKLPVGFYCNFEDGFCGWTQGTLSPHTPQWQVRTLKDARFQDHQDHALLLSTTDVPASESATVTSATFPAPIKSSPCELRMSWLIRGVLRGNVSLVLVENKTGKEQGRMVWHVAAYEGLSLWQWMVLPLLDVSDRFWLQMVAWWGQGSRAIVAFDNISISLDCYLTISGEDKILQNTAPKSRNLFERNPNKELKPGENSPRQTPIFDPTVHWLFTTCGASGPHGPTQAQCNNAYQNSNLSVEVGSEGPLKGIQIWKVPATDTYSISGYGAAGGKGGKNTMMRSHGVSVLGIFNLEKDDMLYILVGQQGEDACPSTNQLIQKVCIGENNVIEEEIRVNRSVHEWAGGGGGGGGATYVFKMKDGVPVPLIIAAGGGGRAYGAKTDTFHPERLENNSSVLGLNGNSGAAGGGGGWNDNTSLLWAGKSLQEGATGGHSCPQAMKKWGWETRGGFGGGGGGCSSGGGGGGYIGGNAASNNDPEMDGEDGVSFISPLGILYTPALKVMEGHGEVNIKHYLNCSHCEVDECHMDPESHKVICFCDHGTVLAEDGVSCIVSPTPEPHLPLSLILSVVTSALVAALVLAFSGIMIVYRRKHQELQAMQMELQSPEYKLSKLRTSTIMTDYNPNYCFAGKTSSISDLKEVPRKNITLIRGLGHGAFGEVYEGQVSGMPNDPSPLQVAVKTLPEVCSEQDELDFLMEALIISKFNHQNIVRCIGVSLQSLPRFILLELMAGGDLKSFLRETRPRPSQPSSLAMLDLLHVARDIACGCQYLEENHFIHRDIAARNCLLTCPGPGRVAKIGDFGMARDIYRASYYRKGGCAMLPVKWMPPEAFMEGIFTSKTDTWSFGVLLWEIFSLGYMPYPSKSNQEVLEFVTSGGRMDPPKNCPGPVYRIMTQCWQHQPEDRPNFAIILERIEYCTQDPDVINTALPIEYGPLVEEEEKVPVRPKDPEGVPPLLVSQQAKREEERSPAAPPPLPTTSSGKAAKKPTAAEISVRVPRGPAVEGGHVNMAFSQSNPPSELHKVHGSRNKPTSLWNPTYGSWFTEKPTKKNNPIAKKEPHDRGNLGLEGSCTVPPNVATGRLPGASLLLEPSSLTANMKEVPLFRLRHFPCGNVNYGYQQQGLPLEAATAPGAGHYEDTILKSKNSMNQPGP
Outline: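 Ba/F3 cells were stably transduced with wild-type EML4-ALK variant 1 and selected for IL-3-independent growth. Cells were seeded for 24 h, then exposed to compounds for 72 h at 37 °C, 5% CO2. Viability was read as ATP luminescence and IC50 values were fitted.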

KG-1 = type: cell-based, human
Outline: (§1)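 Cells used were KG-1 (AML), TT medullary thyroid carcinoma ([…]) and KM12 colon (TPM3-TRKA). Viability was read by CellTiter-Glo ATP luminescence, and IC50 derived by curve fitting.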

KM12 cell (TPM3-TRKA) = type: cell-based, human
Outline: as §1

TT cell (RET C634W) = type: cell-based; settings: Homo sapiens, anti-cell proliferation
Method: Human medulla thyroid carcinoma cell line TT (containing RET […] mutation) and acute myelogenous cell line KG-1 were purchased from ATCC. Human colon cancer cell line KMI2 (containing TPM3-TRKA) was obtained from NCI.
Two thousand cells per well were seeded in 384 well white plate for 24 hrs, and then treated with compounds for 72 hours (37° C., 5% CO2). Cell proliferation was measured using CellTiter-Glo luciferase-based ATP detection assay (Promega) following the manufactures's protocol. IC50 determinations were performed using GraphPad Prism software (GraphPad, Inc., San Diego, Calif.).

BaF3 KIF5B-RET = molecular target: T2, BaF3 KIF5B-RET (Homo sapiens, UniProt P07949); type: cell-based; settings: anti-cell proliferation, read-out: BaF3 KIF5B-RET IC50
T2 construct: fused on or other part: P33176 (Kinesin-1 heavy chain)
T2 sequence (P07949 whole entry, change not shown, the tested form may be a part): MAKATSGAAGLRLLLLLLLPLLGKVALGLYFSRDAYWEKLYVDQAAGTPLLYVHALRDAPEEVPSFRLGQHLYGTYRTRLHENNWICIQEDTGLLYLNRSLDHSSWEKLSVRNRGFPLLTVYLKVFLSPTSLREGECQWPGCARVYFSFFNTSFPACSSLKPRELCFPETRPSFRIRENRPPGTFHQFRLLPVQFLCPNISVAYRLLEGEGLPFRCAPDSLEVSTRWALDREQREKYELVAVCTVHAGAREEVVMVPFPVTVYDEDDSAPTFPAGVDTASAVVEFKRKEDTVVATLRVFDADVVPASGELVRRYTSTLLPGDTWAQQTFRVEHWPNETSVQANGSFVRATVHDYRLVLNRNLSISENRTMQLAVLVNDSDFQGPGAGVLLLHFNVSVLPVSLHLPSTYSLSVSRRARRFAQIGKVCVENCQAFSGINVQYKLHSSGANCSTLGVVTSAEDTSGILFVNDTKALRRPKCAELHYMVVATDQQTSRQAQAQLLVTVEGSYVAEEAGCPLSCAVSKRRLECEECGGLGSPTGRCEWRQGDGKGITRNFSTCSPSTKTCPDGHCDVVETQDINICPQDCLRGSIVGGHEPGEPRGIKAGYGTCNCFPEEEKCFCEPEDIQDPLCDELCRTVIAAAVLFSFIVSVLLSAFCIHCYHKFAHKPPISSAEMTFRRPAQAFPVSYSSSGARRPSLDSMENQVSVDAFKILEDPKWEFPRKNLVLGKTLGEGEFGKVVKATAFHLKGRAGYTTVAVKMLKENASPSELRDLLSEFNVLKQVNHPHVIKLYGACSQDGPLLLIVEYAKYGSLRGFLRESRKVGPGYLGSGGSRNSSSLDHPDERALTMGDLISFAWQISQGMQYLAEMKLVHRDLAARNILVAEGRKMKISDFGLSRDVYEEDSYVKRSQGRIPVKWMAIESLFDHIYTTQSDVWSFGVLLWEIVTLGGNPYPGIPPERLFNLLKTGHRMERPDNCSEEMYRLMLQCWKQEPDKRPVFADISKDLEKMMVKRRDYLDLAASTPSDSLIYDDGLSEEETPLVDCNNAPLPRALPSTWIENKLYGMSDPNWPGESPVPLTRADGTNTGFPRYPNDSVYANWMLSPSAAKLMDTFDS
Outline: (§2)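 Ba/F3 cells were lentivirally transduced with wild-type or mutant KIF5B-RET, puromycin-selected and grown without IL-3. CellTiter-Glo ATP luminescence read viability, and IC50 values came from curve fitting.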

BaF3 KIF5B-RET_V804M = molecular target: T3, BaF3 KIF5B-RET_V804M (Homo sapiens, UniProt P07949, V804M, cells depend on it); type: cell-based; settings: anti-cell proliferation, read-out: BaF3 KIF5B-RET_V804M IC50
T3 construct: fused on or other part: P33176 (Kinesin-1 heavy chain)
T3 sequence (P07949 whole entry V804M, the tested form may be a part): as the sequence (P07949 whole entry, change not shown, the tested form may be a part) above, with V804M counted along it
Outline: as §2

BaF3 KIF5B-RET_G810R = molecular target: T4, BaF3 KIF5B-RET_G810R (Homo sapiens, UniProt P07949, G810R, cells depend on it); type: cell-based; settings: anti-cell proliferation, read-out: BaF3 KIF5B-RET_G810R IC50
T4 construct: fused on or other part: P33176 (Kinesin-1 heavy chain)
T4 sequence (P07949 whole entry G810R, the tested form may be a part): as the sequence (P07949 whole entry, change not shown, the tested form may be a part) above, with G810R counted along it

[1] = Homo sapiens, KG-1, anti-cell proliferation
[2] = Homo sapiens, KM12, anti-cell proliferation

Row | GI50 (BaF3 EML4-ALK) [µM] | GI50 (BaF3 KIF5B-RET) [µM] | GI50 (BaF3 KIF5B-RET_V804M) [µM] | GI50 (BaF3 KIF5B-RET_G810R) [µM] | Compound | pIC50 (KG-1; [1]) | pIC50 (KM12 cell (TPM3-TRKA); [2]) | pIC50 (TT cell (RET C634W)) | pIC50 (KG-1; anti-cell proliferation) | pIC50 (KM12 cell (TPM3-TRKA); anti-cell proliferation)
1 | > 10 | 1.45 | > 10 | – | C[C@H]1CNC(=O)c2cnn3cc4c(nc23)N(Cc2cc(F)ccc2O1)[C@@H]1CCC[C@H]1O4 [Compound 2] | 5.30 | 6.59 | 5.75 | – | –
2 | 1.5 | < 0.0002 | 1.7 | – | C[C@H]1CNC(=O)c2cnn3cc4c(nc23)N(Cc2cc(F)cc(F)c2O1)[C@@H]1CCC[C@@H]1O4 [Compound 3, (3aR,11S,20aS)-7,9-difluoro-11-methyl-2,3,3a,12,13,20a-hexahydro-1H,5H-17-19-(metheno)cyclopenta[5,6][1,4] oxazino[3,4-i]pyrazolo[4,3-f][1,4,8,10]benzoxatriacyclotridecin-14(11H)-one] | 6.30 | 8.38 | 8.10 | – | –
3 | 3.29 | 0.184 | 5 | – | C[C@H]1CNC(=O)c2cnn3cc4c(nc23)N(Cc2cc(F)ccc2O1)[C@@H]1COC[C@@H]1O4 [Compound 4, (3aR,11S,20aS)-7-fluoro-11-methyl-1,3,3a,12,13,20a-hexahydro-5H-17-19-(metheno)furo[3′,4′:5,6][1,4] oxazino[3,4-i]pyrazolo[4,3-f][1,4,8,10]benzoxatriacyclotridecin-14(11H)-one] | 5.30 | 7.66 | 6.34 | – | –
4 | 0.139 | < 0.0002 | 0.469 | 0.0036 | O=C1N[C@H](C(F)F)COc2ncc(F)cc2CN2c3nc4c1cnn4cc3O[C@H]1CCC[C@H]12 [Compound 47, (3aR,12S,20aS)-12-(difluoromethyl)-7-fluoro-2,3,3a,12,13,20a-hexahydro-1H,5H-17,19-(metheno)cyclopenta[5,6][1,4] oxazino[3,4-i]pyrazolo[4,3-f]pyrido[3,2-l][1,4,8,10]oxatriazacyclotridecin-14(11H)-one] | 8.46 | > 9.70 | – | – | –
5 | 0.456 | 0.0002 | 1.07 | 0.0909 | O=C1N[C@H](C(F)(F)F)COc2ncc(F)cc2CN2c3nc4c1cnn4cc3O[C@H]1CCC[C@H]12 [Compound 48, (3aR,12S,20aS)-7-fluoro-12-(trifluoromethyl)-2,3,3a,12,13,20a-hexahydro-1H,5H-17,19-(metheno)cyclopenta[5,6][1,4]oxazino[3,4-i]pyrazolo[4,3-f]pyrido[3,2-l][1,4,8,10]oxatriazacyclotridecin-14(11H)-one] | 6.93 | 8.23 | – | – | –
6 | > 10 | 0.397 | 5 | 1.64 | O=C1NC[C@@H](CO)Oc2ncc(F)cc2CN2c3nc4c1cnn4cc3O[C@H]1CCC[C@H]12 [Compound 49, (3aR,11S,20aS)-7-fluoro-11-(hydroxymethyl)-2,3,3a,12,13,20a-hexahydro-1H,5H-17,19-(metheno)cyclopenta[5,6][1,4]oxazino[3,4-i]pyrazolo[4,3-f]pyrido[3,2-l][1,4,8,10]oxatriazacyclotridecin-14(11H)-one] | 5.28 | 5.84 | – | – | –
7 | 0.0555 | < 0.0002 | 0.0715 | 0.0029 | (3aR,11s,13S,21aS)-7-fluoro-2,3,3a,12, 13,14,15,21a-octahydro-1H,5H,11H- 11,13-methano-18,20- (metheno)cyclopenta[5,6][1,4] oxazino[4,3-e]pyrazolo[3,4-h]pyrido[2,3- b][1,5,7,11]oxatriazacyclotetradecine [Compound 46] | – | – | – | 8.23 | 8.55
